The numbers were not newly measured in patent US20180271760A1, “Skin Care Compositions” (priority 2017, published 2018), which cites them from elsewhere.

Converted amounts (≈) assume the structure as drawn.

For data set [1] the following is noted: in 4 weeks.

Turning to `O=C(O)CCCCCCCC(=O)O` [Azelaic acid], the “solubility in glycerol and glycols” value (glycerol and glycols) is “soluble”. Moreover, the solubility in water (water, solubility is pH dependent) is 2100 µg/mL (≈ 11.2 mM).

Regarding `NC(=O)c1cccnc1` [niacinamide], the “reduction of TEWL” value in data set [1] is given as 24%.
